The values that follow come from patent US12521393B2, “Cytotoxicity targeting chimeras for CCR2-expressing cells” (GLAXOSMITHKLINE INTELLECTUAL PROPERTY DEVELOPMENT LIMITED, priority 2021, dated 2026).

The subject of test [1] is endogenous target monocytes in human PBMC. The test can be described thus: PBMC ex vivo monocyte depletion flow cytometry assay (Example 200). It counts as cell-based. The note with it: with anti-cotinine antibody (SEQ ID NO: 11/12), 18-24 hours, EC50 in molar, read-out: Ex Vivo Depletion Assay pEC50 (converted). Summed up:
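Monocyte depletion is reported as pEC50, averaged or given individually across runs, and read by flow cytometry staining CD45, CD14 and CD4 with a viability dye. Compounds, diluted four-fold over 11 points from 1 mM DMSO stocks, were combined with 30 μg/mL Fc-enhanced anti-cotinine antibody and human PBMC, then incubated 18-24 h at 37° C.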
For orientation: A flow cytometer gives signals particle by particle.

The subject of test [2] is CCR2 expressing cells (CD11b+Ly6c+Hi) in peripheral blood. The test can be described thus: In vivo depletion assay, flow cytometry of peripheral blood (Example 201). As to conditions: hCCR2 knock-in mice, IV 0.1 mpk compound + 10 mpk anti-cotinine antibody (SEQ ID NO: 13/14), peripheral blood at 48 hr. Also noted: species or system human CCR2 knock-in mice (C57 background). In a few lines: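 Flow cytometry of blood collected at study termination quantified percent depletion of CD11b+Ly6c+Hi cells and CCR2 expression, using surface markers CD45, CD3, CD11b, Ly6C, human CCR2 after Fc block, with 7AAD viability stain. Compound given in saline:DMSO:PBS formulation, optionally combined with anti-cotinine antibody, incubated 30 min before administration.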

On to `CC(C)N(C)[C@@H]1CC[C@H](N2CC[C@H](Nc3ncnc4ccc(C(F)(F)F)cc34)C2=O)[C@H](NC(=O)[C@H]2CC[C@@H](CC(=O)CCCOC[C@H]3CC[C@H](COCCNC(=O)[C@H]4CC(=O)N(C)[C@@H]4c4cccnc4)CC3)CC2)C1` [Example 60, (2S,3S)-N-(2-(((1R,4S)-4-(((5-((1S,4S)-4-(((1R,2S,5R)-5-(Isopropyl(methyl)amino)-2-((S)-2-oxo-3-((6-(trifluoromethyl)quinazolin-4-yl)amino)pyrrolidin-1-yl)cyclohexyl)carbamoyl)cyclohexyl)-4-oxopentyl)oxy)methyl)cyclohexyl)methoxy)ethyl)-1-methyl-5-oxo-2-(pyridin-3-yl)pyrrolidine-3-carboxamide], for which, in test [1], the EC50 is 0.631 nM. Moreover, the “% Depletion of CCR2 expressing cells” value in test [2] was determined as 90%.
For `CC(C)N(C)[C@@H]1CC[C@H](N2CC[C@H](Nc3ncnc4ccc(C(F)(F)F)cc34)C2=O)[C@H](NC(=O)CCNC(=O)CCCOC[C@H]2CC[C@@H](COCCNC(=O)[C@H]3CC(=O)N(C)[C@@H]3c3cccnc3)CC2)C1` [Example 62, (2S,3S)-N-(2-(((1S,4R)-4-((4-((3-(((1R,2S,5R)-5-(Isopropyl(methyl)amino)-2-((S)-2-oxo-3-((6-(trifluoromethyl)quinazolin-4-yl)amino)pyrrrolidin-1-yl)cyclohexyl)amino)-3-oxopropyl)amino)-4-oxobutoxy)methyl)cyclohexyl)methoxy)ethyl)-1-methyl-5-oxo-2-(pyridin-3-yl)pyrrolidine-3-carboxamide], the EC50 in test [1] was 0.501 nM. In test [2], the “% Depletion of CCR2 expressing cells” value is 56%.
In the case of `CC(C)N(C)[C@@H]1CC[C@H](N2CC[C@H](Nc3ncnc4ccc(C(F)(F)F)cc34)C2=O)[C@H](NC(=O)[C@H]2CC[C@@H](NC(=O)CCOCCOCCNC(=O)CNC(=O)[C@H]3CC(=O)N(C)[C@@H]3c3cccnc3)CC2)C1` [Example 63, (2S,3S)-N-(2-((2-(2-(3-(((1S,4s)-4-(((1R,2S,5R)-5-(Isopropyl(methyl)amino)-2-((S)-2-oxo-3-((6-(trifluoromethyl)quinazolin-4-yl)amino)pyrrolidin-1-yl)cyclohexyl)carbamoyl)cyclohexyl)amino)-3-oxopropoxy)ethoxy)ethyl)amino)-2-oxoethyl)-1-methyl-5-oxo-2-(pyridin-3-yl)pyrrolidine-3-carboxamide], the EC50 in test [1] was 0.631 nM. For the same compound, the “% Depletion of CCR2 expressing cells” value in test [2] was 82%.
Regarding `CC(C)N(C)[C@@H]1CC[C@H](N2CC[C@H](Nc3ncnc4ccc(C(F)(F)F)cc34)C2=O)[C@H](NC2CCN(C(=O)CCOCCOCCOCCOCCNC(=O)[C@H]3CC(=O)N(C)[C@@H]3c3cccnc3)CC2)C1` [Example 69, (2S,3S)-N-(15-(4-(((1R,2S,5R)-5-(Isopropyl(methyl)amino)-2-((S)-2-oxo-3-((6-(trifluoromethyl)quinazolin-4-yl)amino)pyrrolidin-1-yl)cyclohexyl)amino)piperidin-1-yl)-15-oxo-3,6,9,12-tetraoxapentadecyl)-1-methyl-5-oxo-2-(pyridin-3-yl)pyrrolidine-3-carboxamide], the EC50 in test [1] is 1.58 nM. The “% Depletion of CCR2 expressing cells” value in test [2] amounted to 98.59%.
On to `CC(C)N(C)[C@@H]1CC[C@H](N2CC[C@H](Nc3ncnc4ccc(C(F)(F)F)cc34)C2=O)[C@H](NC(=O)CCOCCOCCNC(=O)CCOCCOCCNC(=O)[C@H]2CC(=O)N(C)[C@@H]2c2cccnc2)C1` [Example 76, (2S,3S)-N-(19-(((1R,2S,5R)-5-(Isopropyl(methyl)amino)-2-((S)-2-oxo-3-((6-(trifluoromethyl)quinazolin-4-yl)amino)pyrrolidin-1-yl)cyclohexyl)amino)-9,19-dioxo-3,6,13,16-tetraoxa-10-azanonadecyl)-1-methyl-5-oxo-2-(pyridin-3-yl)pyrrolidine-3-carboxamide], for which, in test [1], the EC50 was 1.26 nM. In addition, the “% Depletion of CCR2 expressing cells” value in test [2] amounted to 65%.
On to `CC(C)N(C)[C@@H]1CC[C@H](N2CC[C@H](Nc3ncnc4ccc(C(F)(F)F)cc34)C2=O)[C@H](NC(=O)[C@H]2CC[C@@H](NC(=O)COCCNC(=O)COCCNC(=O)[C@H]3CC(=O)N(C)[C@@H]3c3cccnc3)CC2)C1` [Example 99, (2S,3S)-N-(2-(2-((2-(2-(((1S,4s)-4-(((1R,2S,5R)-5-(Isopropyl(methyl)amino)-2-((S)-2-oxo-3-((6-(trifluoromethyl)quinazolin-4-yl)amino)pyrrolidin-1-yl)cyclohexyl)carbamoyl)cyclohexyl)amino)-2-oxoethoxy)ethyl)amino)-2-oxoethoxy)ethyl)-1-methyl-5-oxo-2-(pyridin-3-yl)pyrrolidine-3-carboxamide], for which, in test [1], the EC50 is 0.794 nM. In addition, the “% Depletion of CCR2 expressing cells” value in test [2] turned out to be 80%.
On to `CC(C)N(C)[C@@H]1CC[C@H](N2CC[C@H](Nc3ncnc4ccc(C(F)(F)F)cc34)C2=O)[C@H](NC(=O)CCOCCNC(=O)COCCNC(=O)COCCNC(=O)[C@H]2CC(=O)N(C)[C@@H]2c2cccnc2)C1` [Example 102, (2S,3S)-N-(18-(((1R,2S,5R)-5-(Isopropyl(methyl)amino)-2-((S)-2-oxo-3-((6-(trifluoromethyl)quinazolin-4-yl)amino)pyrrolidin-1-yl)cyclohexyl)amino)-5,11,18-trioxo-3,9,15-trioxa-6,12-diazaoctadecyl)-1-methyl-5-oxo-2-(pyridin-3-yl)pyrrolidine-3-carboxamide], for which the EC50 in test [1] was 0.316 nM. Further, the “% Depletion of CCR2 expressing cells” value in test [2] is 91%.
On the same counts, the results for `CC(C)N(C)[C@@H]1CC[C@H](N2CC[C@H](Nc3ncnc4ccc(C(F)(F)F)cc34)C2=O)[C@H](NC(=O)CCOCCNC(=O)CCOCCNC(=O)COCCNC(=O)[C@H]2CC(=O)N(C)[C@@H]2c2cccnc2)C1` [Example 105, (2S,3S)-N-(19-(((1R,2S,5R)-5-(Isopropyl(methyl)amino)-2-((S)-2-oxo-3-((6-(trifluoromethyl)quinazolin-4-yl)amino)pyrrolidin-1-yl)cyclohexyl)amino)-5,12,19-trioxo-3,9,16-trioxa-6,13-diazanonadecyl)-1-methyl-5-oxo-2-(pyridin-3-yl)pyrrolidine-3-carboxamide] are 0.398 nM and 95%.
On the same counts, the results for `CC(C)N(C)[C@@H]1CC[C@H](N2CC[C@H](Nc3ncnc4ccc(C(F)(F)F)cc34)C2=O)[C@H](NC(=O)CCOCCNC(=O)[C@H]2CC[C@@H](NC(=O)COCCNC(=O)[C@H]3CC(=O)N(C)[C@@H]3c3cccnc3)CC2)C1` [Example 107, (2S,3S)-N-(2-(2-(((1S,4R)-4-((2-(3-(((1R,2S,5R)-5-(Isopropyl(methyl)amino)-2-((S)-2-oxo-3-((6-(trifluoromethyl)quinazolin-4-yl)amino)pyrrolidin-1-yl)cyclohexyl)amino)-3-oxopropoxy)ethyl)carbamoyl)cyclohexyl)amino)-2-oxoethoxy)ethyl)-1-methyl-5-oxo-2-(pyridin-3-yl)pyrrolidine-3-carboxamide] are 0.2 nM and 96%.
Regarding `CC(C)N(C)[C@@H]1CC[C@H](N2CC[C@H](Nc3ncnc4ccc(C(F)(F)F)cc34)C2=O)[C@H](NC(=O)COCCNC(=O)COCCNC(=O)COCCNC(=O)[C@H]2CC(=O)N(C)[C@@H]2c2cccnc2)C1` [Example 111, (2S,3S)-N-(17-(((1R,2S,5R)-5-(Isopropyl(methyl)amino)-2-((S)-2-oxo-3-((6-(trifluoromethyl)quinazolin-4-yl)amino)pyrrolidin-1-yl)cyclohexyl)amino)-5,11,17-trioxo-3,9,15-trioxa-6,12-diazaheptadecyl)-1-methyl-5-oxo-2-(pyridin-3-yl)pyrrolidine-3-carboxamide], the EC50 in test [1] is 5.01 nM. Further, the “% Depletion of CCR2 expressing cells” value in test [2] is recorded as 50%.
For `CC(C)N(C)[C@@H]1CC[C@H](N2CC[C@H](Nc3ncnc4ccc(C(F)(F)F)cc34)C2=O)[C@H](NC(=O)[C@H]2CC[C@@H](NC(=O)CCCOCCCCOCCNC(=O)[C@H]3CC(=O)N(C)[C@@H]3c3cccnc3)CC2)C1` [Example 122, (2S,3S)-N-(2-(4-(4-(((1S,4s)-4-(((1R,2S,5R)-5-(Isopropyl(methyl)amino)-2-((S)-2-oxo-3-((6-(trifluoromethyl)quinazolin-4-yl)amino)pyrrolidin-1-yl)cyclohexyl)carbamoyl)cyclohexyl)amino)-4-oxobutoxy)butoxy)ethyl)-1-methyl-5-oxo-2-(pyridin-3-yl)pyrrolidine-3-carboxamide], in that order: 0.794 nM and 94%.
For `CC(C)N(C)[C@@H]1CC[C@H](N2CC[C@H](Nc3ncnc4ccc(C(F)(F)F)cc34)C2=O)[C@H](NC(=O)CNC(=O)[C@H]2CC[C@@H](NC(=O)CCOCCOCCNC(=O)[C@H]3CC(=O)N(C)[C@@H]3c3cccnc3)CC2)C1` [Example 137, (2S,3S)-N-(2-(2-(3-(((1S,4s)-4-((2-(((1R,2S,5R)-5-(Isopropyl(methyl)amino)-2-((S)-2-oxo-3-((6-(trifluoromethyl)quinazolin-4-yl)amino)pyrrolidin-1-yl)cyclohexyl)amino)-2-oxoethyl)carbamoyl)cyclohexyl)amino)-3-oxopropoxy)ethoxy)ethyl)-1-methyl-5-oxo-2-(pyridin-3-yl)pyrrolidine-3-carboxamide], the EC50 in test [1] is 2 nM. In test [2], the “% Depletion of CCR2 expressing cells” value turned out to be 89%.
